Source: patent publication US10105357B2, “Indication of antibiotic drugs for preparation of cancer inhibition pharmaceutical composition” (LAUNX BIOMEDICAL CO., LTD., priority 2014, dated 2018)
Where two headings read alike, the source gives them in different places.

Legend:
[1] = test system: cancer cell lines; experiment: Cell viability analysis (WST-1) on cancer cell lines; assay type: cell-based, human; settings: drug 10 μM, 72 hours, WST-1; Table 3
[2] = test system: HI650 (Lung Adenocarcinoma); experiment: Cell viability analysis, lung cancer HI650; assay type: cell-based, human; settings: Homo sapiens
[3] = test system: A549 (Lung Adenocarcinoma); experiment: Cell viability analysis, lung cancer A549; assay type: cell-based, human; settings: Homo sapiens
[4] = test system: AGS (Gastric Adenocarcinoma); experiment: Cell viability analysis, gastric cancer AGS; assay type: cell-based, human; settings: Homo sapiens
[5] = test system: MKN-45 (Gastric Adenocarcinoma); experiment: Cell viability analysis, gastric cancer MKN-45; assay type: cell-based, human; settings: Homo sapiens
[6] = test system: HepG2 (Hepatocellular Carcinoma); experiment: Cell viability analysis, hepatic cancer HepG2; assay type: cell-based, human; settings: Homo sapiens, HepG2, 72 h
[7] = test system: Hep3B (hepatocellular carcinoma); experiment: Cell viability analysis, hepatic cancer Hep3B; assay type: cell-based, human; settings: Homo sapiens, Hep3B, 72 h, read-out: The results of antibiotic drug inhibiting cancer cell lines (cell viability analysis), Hep3B
[8] = test system: LoVo (Colorectal Adenocarcinoma); experiment: Cell viability analysis, colon cancer LoVo; assay type: cell-based, human; settings: Homo sapiens, LoVo
[9] = test system: A375 (Amelanotic Melanoma); experiment: Cell viability analysis, skin cancer A375; assay type: cell-based, human; settings: Homo sapiens
[10] = test system: BCC (basal cell carcinoma); experiment: Cell viability analysis, skin cancer BCC; assay type: cell-based, human; settings: Homo sapiens, 72 h, read-out: The results of antibiotic drug inhibiting cancer cell lines (cell viability analysis), BCC
[11] = test system: HeLa (Cervix Adenocarcinoma); experiment: Cell viability analysis, cervical cancer HeLa; assay type: cell-based, human; settings: Homo sapiens, HeLa
[12] = test system: C-33A (Cervical carcinoma); experiment: Cell viability analysis, cervical cancer C-33A; assay type: cell-based, human; settings: Homo sapiens, C-33-A, 72 h, read-out: The results of antibiotic drug inhibiting cancer cell lines (cell viability analysis), C-33A
[13] = test system: PC3 (p53−) (Prostate Adenocarcinoma); experiment: Cell viability analysis, prostate cancer PC3; assay type: cell-based, human; settings: Homo sapiens
[14] = test system: TSGH-8301 (Urinary Bladder Carcinoma); experiment: Cell viability analysis, bladder cancer TSGH-8301; assay type: cell-based, human; settings: Homo sapiens
[15] = test system: T24; experiment: Cell viability analysis, bladder cancer T24; assay type: cell-based, human; settings: Homo sapiens, T-24, 72 h, read-out: The results of antibiotic drug inhibiting cancer cell lines (cell viability analysis), T24
[16] = test system: MCF7 (Mammary Gland, Adenocarcinoma); experiment: Cell viability analysis, breast cancer MCF7; assay type: cell-based, human; settings: Homo sapiens
[17] = test system: MDA-MB-231 (Mammary Gland, Adenocarcinoma); experiment: Cell viability analysis, breast cancer MDA-MB-231; assay type: cell-based, human; settings: Homo sapiens, MDA-MB-231, 72 h, read-out: The results of antibiotic drug inhibiting cancer cell lines (cell viability analysis), MDA-MB231
[18] = test system: BxPC-3; experiment: Cell viability analysis, pancreatic cancer BxPC-3; assay type: cell-based, human; settings: Homo sapiens, BXPC-3, 72 h, read-out: The results of antibiotic drug inhibiting cancer cell lines (cell viability analysis), BxPC-3
[19] = test system: AsPC-1; experiment: Cell viability analysis, pancreatic cancer AsPC-1; assay type: cell-based, human; settings: Homo sapiens, ASPC1, 72 h, read-out: The results of antibiotic drug inhibiting cancer cell lines (cell viability analysis), AsPC-1
[20] = test system: NIH: OVCAR-3; experiment: Cell viability analysis, ovarian cancer NIH: OVCAR-3; assay type: cell-based, human; settings: Homo sapiens, OVCAR-3, 72 h, read-out: The results of antibiotic drug inhibiting cancer cell lines (cell viability analysis), NIH-OVCAR-3
[21] = test system: TOV-21G; experiment: Cell viability analysis, ovarian cancer TOV-21G; assay type: cell-based, human; settings: Homo sapiens, TOV21G, 72 h, read-out: The results of antibiotic drug inhibiting cancer cell lines (cell viability analysis), TOV-21G
[22] = test system: SAS (Tongue squamous cell carcinoma); experiment: Cell viability analysis, tongue cancer SAS; assay type: cell-based, human; settings: Homo sapiens, 72 h, read-out: The results of antibiotic drug inhibiting cancer cell lines (cell viability analysis), SAS
[23] = test system: U-2OS; experiment: Cell viability analysis, osteosarcoma U-2OS; assay type: cell-based, human; settings: Homo sapiens, U2OS, 72 h, read-out: The results of antibiotic drug inhibiting cancer cell lines (cell viability analysis), U2OS
[24] = test system: 786-O (Renal adenocarcinoma); experiment: Cell viability analysis, renal cancer 786-O; assay type: cell-based, human; settings: Homo sapiens, 786-0, 72 h, read-out: The results of antibiotic drug inhibiting cancer cell lines (cell viability analysis), 786-O
[25] = test system: HL-60 (Acute Promyelocytic Leukemia); experiment: Cell viability analysis, leukemia HL-60; assay type: cell-based, human; settings: Homo sapiens
[26] = test system: HCT116 (p53+) (Colorectal Carcinoma)
[27] = test system: HCT116 (p53+) (Colorectal Carcinoma); experiment: cells; settings: Homo sapiens, HCT-116, 72 h, read-out: cell viability (survival rate), HCT116
[28] = NCI-H1650, 72 h, read-out: cell viability (survival rate), H1650, drug 10 μM, 72 hours, WST-1, OD450 nm
[29] = A549, 72 h, read-out: cell viability (survival rate), A549, drug 10 μM, 72 hours, WST-1, OD450 nm
[30] = 72 h, read-out: cell viability (survival rate), AGS, drug 10 μM, 72 hours, WST-1, OD450 nm
[31] = read-out: cell viability (survival rate), HepG2, drug 10 μM, 72 hours, WST-1, OD450 nm
[32] = 72 h, read-out: cell viability (survival rate), LoVo, drug 10 μM, 72 hours, WST-1, OD450 nm
[33] = A-375, 72 h, read-out: cell viability (survival rate), A375, drug 10 μM, 72 hours, WST-1, OD450 nm
[34] = 72 h, read-out: cell viability (survival rate), PC3, drug 10 μM, 72 hours, WST-1, OD450 nm
[35] = 72 h, read-out: cell viability (survival rate), TSGH, drug 10 μM, 72 hours, WST-1, OD450 nm
[36] = HL-60, 72 h, read-out: cell viability (survival rate), HL-60, drug 10 μM, 72 hours, WST-1, OD450 nm

CN(C)c1cc(NC(=O)CNC(C)(C)C)c(O)c2c1C[C@H]1C[C@H]3[C@H](N(C)C)C(O)=C(C(N)=O)C(=O)[C@@]3(O)C(O)=C1C2=O [Tigecycline]
inhibition effect on different cancer cell lines [1]: significant inhibition effect | viability at 10 µM ([2]; NCI-H1650, 72 h, read-out: The results of antibiotic drug inhibiting cancer cell lines (cell viability analysis), H1650, H1650, repeated experiment): 66.9% | viability at 10 µM [2, 28]: 53.1% | viability at 10 µM ([3]; A549, 72 h, read-out: The results of antibiotic drug inhibiting cancer cell lines (cell viability analysis), A549, A549, repeated experiment): 91.5% | viability at 10 µM [3, 29]: 55.9% | viability at 10 µM ([4]; 72 h, read-out: The results of antibiotic drug inhibiting cancer cell lines (cell viability analysis), AGS, repeated experiment): 90.6% | viability at 10 µM [4, 30]: 49.4% | viability at 10 µM ([5]; MKN-45, 72 h, read-out: The results of antibiotic drug inhibiting cancer cell lines (cell viability analysis), MKN-45, MKN-45, repeated experiment): 114% | viability at 10 µM ([5]; MKN-45, 72 h, read-out: cell viability (survival rate), MKN-45, drug 10 μM, 72 hours, WST-1, OD450 nm): 89.2% | viability at 10 µM ([6]; read-out: The results of antibiotic drug inhibiting cancer cell lines (cell viability analysis), HepG2, HepG2, repeated experiment): 97.2% | viability at 10 µM [6, 31]: 102% | viability at 10 µM [7]: 106% | viability at 10 µM ([8]; 72 h, read-out: The results of antibiotic drug inhibiting cancer cell lines (cell viability analysis), LoVo, repeated experiment): 96% | viability at 10 µM [8, 32]: 82.4% | viability at 10 µM ([9]; A-375, 72 h, read-out: The results of antibiotic drug inhibiting cancer cell lines (cell viability analysis), A375, A375, repeated experiment): 83.2% | viability at 10 µM [9, 33]: 52.2% | viability at 10 µM [10]: 79.9% | viability at 10 µM ([11]; 72 h, read-out: The results of antibiotic drug inhibiting cancer cell lines (cell viability analysis), HeLa, repeated experiment): 102% | viability at 10 µM [12]: 100% | viability at 10 µM ([13]; 72 h, read-out: The results of antibiotic drug inhibiting cancer cell lines (cell viability analysis), PC-3, PC-3, repeated experiment): 112% | viability at 10 µM [13, 34]: 83% | viability at 10 µM ([14]; 72 h, TSGH-8301, repeated experiment, read-out: The results of antibiotic drug inhibiting cancer cell lines (cell viability analysis), TSGH-8301): 113% | viability at 10 µM [14, 35]: 98.5% | viability at 10 µM [15]: 109% | viability at 10 µM ([16]; MCF7, 72 h, read-out: The results of antibiotic drug inhibiting cancer cell lines (cell viability analysis), MCF-7, MCF-7, repeated experiment): 79.1% | viability at 10 µM ([16]; MCF7, 72 h, read-out: cell viability (survival rate), MCF7, drug 10 μM, 72 hours, WST-1, OD450 nm): 71.1% | viability at 10 µM [17]: 93.4% | viability at 10 µM [18]: 75.6% | viability at 10 µM [19]: 86.5% | viability at 10 µM [20]: 91.1% | viability at 10 µM [21]: 67.1% | viability at 10 µM [22]: 66.2% | viability at 10 µM [23]: 84% | viability at 10 µM [24]: 100% | viability at 10 µM [25, 36]: 97.6% | viability [26]: 89.7%

O=c1ccc2ccccc2o1 [Coumarin]
viability at 10 µM [2, 28]: 95.6% | viability at 10 µM [3, 29]: 91.8% | viability at 10 µM [4, 30]: 98.5% | viability at 10 µM [6, 31]: 100% | viability at 10 µM [8, 32]: 88.3% | viability at 10 µM [9, 33]: 157% | viability at 10 µM ([11]; 72 h, read-out: cell viability (survival rate), HeLa, drug 10 μM, 72 hours, WST-1, OD450 nm): 96.5% | viability at 10 µM [13, 34]: 86.3% | viability at 10 µM [14, 35]: 108% | viability at 10 µM [25, 36]: 102% | viability at 10 µM [27]: 93.7%

CCCCCCCCCCCCCCCCO [1-Hexadecanol]
viability at 10 µM ([2]; NCI-H1650, 72 h, drug 10 μM, 72 hours, WST-1, OD450 nm, read-out: cell viability (survival rate), H1650): 84.3% | viability at 10 µM ([3]; A549, 72 h, drug 10 μM, 72 hours, WST-1, OD450 nm, read-out: cell viability (survival rate), A549): 84% | viability at 10 µM ([4]; 72 h, drug 10 μM, 72 hours, WST-1, OD450 nm, read-out: cell viability (survival rate), AGS): 89.4% | viability at 10 µM ([5]; MKN-45, 72 h, drug 10 μM, 72 hours, WST-1, OD450 nm, read-out: cell viability (survival rate), MKN-45): 85.5% | viability at 10 µM ([6]; drug 10 μM, 72 hours, WST-1, OD450 nm, read-out: cell viability (survival rate), HepG2): 96% | viability at 10 µM [8, 32]: 98.8% | viability at 10 µM ([9]; A-375, 72 h, drug 10 μM, 72 hours, WST-1, OD450 nm, read-out: cell viability (survival rate), A375): 113% | viability at 10 µM ([11]; 72 h, drug 10 μM, 72 hours, WST-1, OD450 nm, read-out: cell viability (survival rate), HeLa): 91.3% | viability at 10 µM ([13]; 72 h, drug 10 μM, 72 hours, WST-1, OD450 nm, read-out: cell viability (survival rate), PC3): 91.9% | viability at 10 µM ([25]; HL-60, 72 h, drug 10 μM, 72 hours, WST-1, OD450 nm, read-out: cell viability (survival rate), HL-60): 92.2% | viability at 10 µM [27]: 69.8%

c1ccc2c(c1)sc1ccccc12 [Dibenzothiophene]
viability at 10 µM ([2]; NCI-H1650, drug 10 μM, 72 hours, WST-1, OD450 nm, read-out: cell viability (survival rate), H1650): 76.1% | viability at 10 µM ([3]; A549, drug 10 μM, 72 hours, WST-1, OD450 nm, read-out: cell viability (survival rate), A549): 62.3% | viability at 10 µM ([4]; drug 10 μM, 72 hours, WST-1, OD450 nm, read-out: cell viability (survival rate), AGS): 59.2% | viability at 10 µM ([5]; MKN-45, drug 10 μM, 72 hours, WST-1, OD450 nm, read-out: cell viability (survival rate), MKN-45): 92.1% | viability at 10 µM ([8]; drug 10 μM, 72 hours, WST-1, OD450 nm, read-out: cell viability (survival rate), LoVo): 79.7% | viability at 10 µM ([9]; A-375, drug 10 μM, 72 hours, WST-1, OD450 nm, read-out: cell viability (survival rate), A375): 70.6% | viability at 10 µM ([11]; drug 10 μM, 72 hours, WST-1, OD450 nm, read-out: cell viability (survival rate), HeLa): 94.6% | viability at 10 µM ([13]; drug 10 μM, 72 hours, WST-1, OD450 nm, read-out: cell viability (survival rate), PC3): 80.2% | viability at 10 µM ([14]; drug 10 μM, 72 hours, WST-1, OD450 nm, read-out: cell viability (survival rate), TSGH): 88.2% | viability at 10 µM ([16]; MCF7, drug 10 μM, 72 hours, WST-1, OD450 nm, read-out: cell viability (survival rate), MCF7): 71.4% | viability at 10 µM ([25]; HL-60, drug 10 μM, 72 hours, WST-1, OD450 nm, read-out: cell viability (survival rate), HL-60): 110% | viability at 10 µM [27]: 52.7%
